Results as given in article PMC8776337, “Peptides Derived from Vascular Endothelial Growth Factor B Show Potent Binding to Neuropilin‐1” (Chembiochem, 2021).
Several values for one entry are separate records, joined by “and”; a condition that tells them apart may be missing. Identical values can stand only once. Like-named read-outs stand apart in the source and are kept apart here. Positions of bridges follow the written chain, without caps; N, C: chain ends. Residues, ends and D or L forms follow the SMILES beside them. *: point of attachment. Palmitoyl = CCCCCCCCCCCCCCCC(=O)*

Tests used:
[1] = biological target: T1, bt‐VEGF‐A165 binding to NRP1 in HUVEC cells (Homo sapiens, UniProt O14786); assay: Cell based binding assay, inhibition of bt-VEGF-A165 binding to NRP1; details: for IC50: 4 °C, 2 h, streptavidin-horseradish peroxidase detection; for HS (of the inhibition curve of bt‐VEGF‐A165 binding to NRP1): HUVEC cells
T1 construct: expressed in transfected cells
T1 sequence (O14786 22-923): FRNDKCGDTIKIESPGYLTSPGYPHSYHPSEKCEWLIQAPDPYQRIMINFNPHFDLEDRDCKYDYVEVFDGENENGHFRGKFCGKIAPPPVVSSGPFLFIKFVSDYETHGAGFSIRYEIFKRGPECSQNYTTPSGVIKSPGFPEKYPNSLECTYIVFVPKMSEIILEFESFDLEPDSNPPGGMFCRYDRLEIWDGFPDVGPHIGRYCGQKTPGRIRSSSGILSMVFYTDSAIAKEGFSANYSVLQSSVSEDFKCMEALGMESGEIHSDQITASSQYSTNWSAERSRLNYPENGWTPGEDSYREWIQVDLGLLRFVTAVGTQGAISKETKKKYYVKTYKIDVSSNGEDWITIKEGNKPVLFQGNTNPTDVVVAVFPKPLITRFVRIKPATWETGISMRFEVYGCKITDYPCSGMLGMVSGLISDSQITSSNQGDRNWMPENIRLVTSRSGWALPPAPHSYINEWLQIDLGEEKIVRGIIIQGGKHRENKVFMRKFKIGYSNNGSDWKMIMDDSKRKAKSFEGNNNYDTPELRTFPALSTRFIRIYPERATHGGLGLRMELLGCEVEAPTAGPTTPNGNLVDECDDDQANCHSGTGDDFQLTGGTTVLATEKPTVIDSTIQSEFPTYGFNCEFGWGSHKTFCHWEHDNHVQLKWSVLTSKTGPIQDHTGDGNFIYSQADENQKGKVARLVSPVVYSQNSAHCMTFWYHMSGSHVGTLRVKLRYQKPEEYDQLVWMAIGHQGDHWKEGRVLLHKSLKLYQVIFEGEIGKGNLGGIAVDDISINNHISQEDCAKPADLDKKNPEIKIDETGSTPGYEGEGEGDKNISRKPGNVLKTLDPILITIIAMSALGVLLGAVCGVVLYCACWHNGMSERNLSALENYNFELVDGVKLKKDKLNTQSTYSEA
Procedure: A) N‐terminal palmitoyl VEGF‐B167 derived peptide MGC0174. B) Lysine palmitoyl peptide MGC0173. C) N‐terminal palmitoyl VEGF‐A165 derived peptide MGC0171. D) Lysine VEGF‐A165 palmitoyl peptide MGC0172.
Cell based binding assay for bt‐VEGF binding to NRP1‐b1: A flat‐bottomed 96 well plate was coated with 100 μL 10 μg/mL Poly‐D‐lysine (110 μL in 10890 μL PBS) and incubated for 1 hour at R.T. DU145 cells were seeded at a concentration of 20,000 DU145 cells/well in DMEM with 10 % FBS and incubated for 4 hours. Cells were then infected with 0.3 μL per well of adenovirus expressing NRP1 (stock at 1×1012 vp/mL) and incubated for 40 hours. The media was removed followed by washing cells twice in 200 μL of PBS per well. The plate was placed on ice and 50 μL of binding medium was added per well for total binding. Next, 50 μL of 100‐fold excess (100×btVEGF‐A165) of unlabelled‐VEGF (diluted in binding medium) was added per well for non‐specific binding. Peptides (50 μL) at the indicated concentrations were diluted in binding medium and added to specified wells. bt‐VEGF (50 μL of 4 nM; diluted in binding medium) was added per well for both total and non‐specific binding and samples. The plate was incubated at 4 °C for 2 hours. The plate was then placed on ice and the medium was removed followed by gently washing the cells 3 times in 200 μL of PBS per well.
Streptavidin‐horseradish peroxidase (100 μL; dilute to the working concentration specified on the vial label using PBS+1 % BSA=1 : 200) was added to each well. The plate was sealed and incubated for 30 minutes at room temperature. Three more washes with 200 μL PBS were done. Then, 100 μL of substrate solution was added to each well (protected from light). Colour Reagent A and B were mixed together in equal volumes within 15 minutes of use. The plate was sealed and incubated for 20 minutes at room temperature. Stop solution (50 μL) was added to each well ensuring even mixing. The plate was read using Tecan Genios plate reader using a 450 nm cut‐off filter and also with a reference 595 nm cut‐off filter. Nonspecific binding was determined in the absence of NP‐1 coated on the microplate.

NRP1‐b1 = biological target: T2, NRP1‐b1 (Homo sapiens, UniProt O14786); assay: SPR binding of peptides to immobilised NRP1-b1; details: for Receptor occupancy: immobilised NRP1-b1
T2 construct: the immobilized b1 domain of NRP1 (NRP1‐b1); poly-histidine (TEV-cleavable) (cleaved yes); made in house; host or cells: E. coli Rosetta (DE3)
T2 sequence (O14786 275-424 limits assumed): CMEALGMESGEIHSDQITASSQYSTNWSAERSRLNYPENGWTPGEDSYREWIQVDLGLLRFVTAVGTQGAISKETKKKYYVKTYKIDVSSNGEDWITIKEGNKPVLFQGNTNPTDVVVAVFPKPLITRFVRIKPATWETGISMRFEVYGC
Excerpt: We then designed four additional peptides with added lipid chains (Figures 3 and 4). We investigated the effect of lipidation on the N‐terminus (MGC0171 and MGC0174) and on the side chain of a lysine in close proximity to the C‐terminus (MGC0172 and MGC0173) as shown (Figure 5). For the SPR analysis of the lipidated peptides we fitted data to a two‐state reaction model to account for the nonspecific binding of the palmitoyl side chains. Since the model assumes two binding events it provides two association (k a) and dissociation (k d) rates, and the overall equilibrium dissociation constant is calculated using the equation: KD=KD1(1+KD2), in which KD1 and KD2 are obtained as […]. The inverse of the dissociation rate corresponds to the residence time. […] The lipidated peptides were also tested for inhibition of VEGF‐A165 binding to NRP1 in a cell‐based assay (Figure 8).
Surface plasmon resonance: SPR measurements were performed using either Biacore T200 or Biacore 4000 at a constant temperature of 25 °C. All sensor chips, stock buffers, and immobilisation reagents were purchased from GE Healthcare/Cytvia and were prepared according to the manufacturer's instructions.
Chip preparation: PBS containing 0.05 % surfactant P20 was used as the running buffer during immobilisation. Proteins were immobilised onto a CM5 chip using random amine coupling following a standard procedure using the conditions specified in Table 2. A flow cell upstream of the treated flow cell was used as a reference which allowed removal of non‐specific binding to the chip.
Kinetic measurements of peptides: Peptides were injected over immobilized NRP1‐b1 for 60 s, followed by 120 or 180 s dissociation. The surface was regenerated with 1 M NaCl between injections. The SPR response curves were fit to a binding model to obtain association (ka ) and dissociation (kd ) rates which were then converted into equilibrium dissociation constant (KD ) and residence time. For a 1 : 1 binding model […] and for a two‐state binding model KD=K1(1+K2). Residence time was calculated as 1/kd .

[2] = Peptide stability in mouse plasma; assay type: in vitro ADME; details: mouse plasma pH 7.4, 37 °C, LC-MS/MS, triplicate (n=1); for Stability in mouse plasma (in words): 10 μM, 0.24 % DMSO, 0, 5, 15, 30, 60, 120 min
Procedure: Figure 9 Stability of VEGF‐B167 lipidated peptides in mouse plasma determined by MSMS analysis. The stability of the peptides is shown relative to the control eucatropine. Samples were analysed in triplicate (n=1).
Peptide stability in mouse plasma: Mouse plasma stability tests were performed by Cyprotex. In brief, peptides were incubated with mouse plasma (adjusted for pH 7.4, 37 °C) to a final concentration of 10 μM and incubation volume of 500 μL (0.24 % DMSO). After the incubation period (0, 5, 15, 30, 60, and 120 min), the reactions were stopped by transferring 50 μL of incubate to 150 μL acetonitrile containing internal standard. Plasma proteins were precipitated out by centrifuging at 3,000 rpm for 45 min at 4 °C. The supernatant was diluted 1 : 1 with water and analysed by LC‐MS/MS.

[3] = bt-VEGF-A165 4 nM, read-out: IC50, cell‐based activity (HUVECs), inhibition of bt‐VEGF‐A165 binding to NRP1
[4] = SPR, immobilised NRP1-b1, 25 °C, 1:1 model, or first residence time of the two-state model, read-out: Residence time (1/kd) (converted)
[5] = SPR, immobilised NRP1-b1, 25 °C, two-state model, lipidated peptides, read-out: Second residence time calculated from two‐state model (converted)
[6] = SPR, peptide injected 60 s over NRP1-b1 immobilised on CM5 chip, 25 °C, 1:1 model for MGC0122/0123/0124, two-state model for lipidated peptides, read-out: KD, SPR binding to NRP1‐b1
[7] = IC50, cell‐based activity (HUVECs), inhibition of bt‐VEGF‐A165 binding to NRP1, bt-VEGF-A165 4 nM
[8] = read-out: Residence time (1/kd)

| Compound | IC50 [1, 3] [µM] | HS (of the inhibition curve of bt‐VEGF‐A165 binding to NRP1) ([1]; bt-VEGF-A165 4 nM) | residence time (NRP1‐b1; [4]) [min] | residence time (NRP1‐b1; [5]) [min] | Kd (NRP1‐b1; [6]) [µM] | Stability in mouse plasma (in words) [2] | IC50 [1, 7] | half-life at 10 μM ([2]; 0.24 % DMSO, 0-120 min) [min] | Kd (NRP1‐b1) [µM] | Receptor occupancy (NRP1‐b1; SPR) [%] | residence time (NRP1‐b1; [8]) [min] |
| --- | --- | --- | --- | --- | --- | --- | --- | --- | --- | --- | --- |
| CCCCCCCCCCCCCCCC(=O)N[C@@H](CO)C(=O)N[C@H]1CSSC[C@@H]2NC(=O)[C@H]([C@@H](C)O)NC(=O)[C@H](CCCNC(=N)N)NC(=O)[C@H](CCC(=O)O)NC(=O)[C@H](CC(N)=O)NC(=O)[C@H](CC(C)C)NC(=O)[C@H](CCC(=O)O)NC(=O)[C@H](CC(C)C)NC(=O)[C@H](CCC(N)=O)NC(=O)[C@H](CCCNC(=N)N)NC(=O)[C@H](C)NC(=O)[C@H](CCCCN)NC(=O)[C@H](CSSC[C@@H](C(=O)N[C@@H](CC(=O)O)C(=O)N[C@@H](CCCCN)C(=O)N3CCC[C@H]3C(=O)N[C@@H](CCCNC(=N)N)C(=O)N[C@@H](CCCNC(=N)N)C(=O)O)NC(=O)[C@H](CCCNC(=N)N)NC2=O)NC(=O)[C@H](CCCNC(=N)N)NC(=O)[C@H](CO)NC(=O)[C@H](CC(=O)O)NC(=O)[C@H]([C@@H](C)O)NC(=O)[C@H](CC(N)=O)NC(=O)[C@H](CCCCN)NC1=O [MGC0171] (Palmitoyl-SCKNTDSRCKARQLELNERTCRCDKPRR-OH; disulfide 2-21, 9-23) | 1.7 | 1.7 | 0.0883 | 1.58 | 3.32 ± 0.16 | – | – | – | – | – | – |
| CC1CC(OC(=O)C(O)c2ccccc2)CC(C)(C)N1C (stereo not drawn) [eucatropine, reference compound] | – | – | – | – | – | degraded within literature parameters | – | – | – | – | – |
| CCCCCCCCCCCCCCCC(=O)NCCCC[C@H](NC(=O)[C@H](CCCNC(=N)N)NC(=O)[C@@H]1CSSC[C@@H]2NC(=O)[C@H](CCCNC(=N)N)NC(=O)[C@H](CC(C)C)NC(=O)[C@H](Cc3ccccc3)NC(=O)[C@H](CO)NC(=O)[C@H](CCCNC(=N)N)NC(=O)[C@H](CCCNC(=N)N)NC(=O)[C@H](CCCNC(=N)N)NC(=O)[C@@H](NC(=O)[C@H](CCCNC(=N)N)NC(C)=O)CSSC[C@H](NC(=O)[C@H]([C@@H](C)O)NC(=O)[C@H](CC(=O)O)NC(=O)[C@@H]3CCCN3C(=O)[C@H](CC(N)=O)NC(=O)[C@H](CC(C)C)NC(=O)[C@H](CCC(=O)O)NC(=O)[C@H](CC(C)C)NC(=O)CNC(=O)[C@H](CCCNC(=N)N)NC(=O)CNC(=O)[C@H](CCC(N)=O)NC2=O)C(=O)N[C@@H](CCCNC(=N)N)C(=O)N1)C(=O)N[C@@H](CC(C)C)C(=O)N[C@@H](CCCNC(=N)N)C(=O)N[C@@H](CCCNC(=N)N)C(=O)O [MGC0173] (Ac-RCRRRSFLRCQGRGLELNPDTCRCRK(Palmitoyl)LRR-OH; disulfide 2-22, 10-24) | – | 1.8 | – | 2.69 | – | maintained much better levels throughout the course of the experiment | 2 µM | 51 | 0.13 ± 0.03 | 10±1 | 0.0767 |
| CCCCCCCCCCCCCCCC(=O)NCCCC[C@H](NC(=O)[C@H](CC(=O)O)NC(=O)[C@@H]1CSSC[C@@H]2NC(=O)[C@H](CCCNC(=N)N)NC(=O)[C@H](CO)NC(=O)[C@H](CC(=O)O)NC(=O)[C@H]([C@@H](C)O)NC(=O)[C@H](CC(N)=O)NC(=O)[C@H](CCCCN)NC(=O)[C@@H](NC(=O)[C@H](CO)NC(C)=O)CSSC[C@H](NC(=O)[C@H]([C@@H](C)O)NC(=O)[C@H](CCCNC(=N)N)NC(=O)[C@H](CCC(=O)O)NC(=O)[C@H](CC(N)=O)NC(=O)[C@H](CC(C)C)NC(=O)[C@H](CCC(=O)O)NC(=O)[C@H](CC(C)C)NC(=O)[C@H](CCC(N)=O)NC(=O)[C@H](CCCNC(=N)N)NC(=O)[C@H](C)NC(=O)[C@H](CCCCN)NC2=O)C(=O)N[C@@H](CCCNC(=N)N)C(=O)N1)C(=O)N1CCC[C@H]1C(=O)N[C@@H](CCCNC(=N)N)C(=O)N[C@@H](CCCNC(=N)N)C(=O)O [MGC0172] (Ac-SCKNTDSRCKARQLELNERTCRCDK(Palmitoyl)PRR-OH; disulfide 2-21, 9-23) | 10.4 | 1.9 | 0.123 | 1.99 | 1.22 ± 0.25 | – | – | – | – | 22±1 | – |
| CCCCCCCCCCCCCCCC(=O)N[C@@H](CCCNC(=N)N)C(=O)N[C@H]1CSSC[C@@H]2NC(=O)[C@H]([C@@H](C)O)NC(=O)[C@H](CC(=O)O)NC(=O)[C@@H]3CCCN3C(=O)[C@H](CC(N)=O)NC(=O)[C@H](CC(C)C)NC(=O)[C@H](CCC(=O)O)NC(=O)[C@H](CC(C)C)NC(=O)CNC(=O)[C@H](CCCNC(=N)N)NC(=O)CNC(=O)[C@H](CCC(N)=O)NC(=O)[C@H](CSSC[C@@H](C(=O)N[C@@H](CCCNC(=N)N)C(=O)N[C@@H](CCCCN)C(=O)N[C@@H](CC(C)C)C(=O)N[C@@H](CCCNC(=N)N)C(=O)N[C@@H](CCCNC(=N)N)C(=O)O)NC(=O)[C@H](CCCNC(=N)N)NC2=O)NC(=O)[C@H](CCCNC(=N)N)NC(=O)[C@H](CC(C)C)NC(=O)[C@H](Cc2ccccc2)NC(=O)[C@H](CO)NC(=O)[C@H](CCCNC(=N)N)NC(=O)[C@H](CCCNC(=N)N)NC(=O)[C@H](CCCNC(=N)N)NC1=O [MGC0174] (Palmitoyl-RCRRRSFLRCQGRGLELNPDTCRCRKLRR-OH; disulfide 2-22, 10-24) | – | 1.9 | – | 4.46 | – | quickly degraded to low levels after 15 min | 0.319 µM and 0.3 µM | – | 0.33 ± 0.05 | 47±3 | 0.248 |
